Test results from paper PMC8151276, “An Integrated Approach toward NanoBRET Tracers for Analysis of GPCR Ligand Engagement” (Molecules, 2021).

Assays:
CCR10 = biological target: T1, CCR10 (Homo sapiens, UniProt P46092); assay: NanoBRET screen HiBiT-CCR10 in HEK293; assay type: binding
T1 construct: purchased Promega (in-house HiBiT-GPCR construct library, NanoBRET)
T1 sequence (P46092 1-362): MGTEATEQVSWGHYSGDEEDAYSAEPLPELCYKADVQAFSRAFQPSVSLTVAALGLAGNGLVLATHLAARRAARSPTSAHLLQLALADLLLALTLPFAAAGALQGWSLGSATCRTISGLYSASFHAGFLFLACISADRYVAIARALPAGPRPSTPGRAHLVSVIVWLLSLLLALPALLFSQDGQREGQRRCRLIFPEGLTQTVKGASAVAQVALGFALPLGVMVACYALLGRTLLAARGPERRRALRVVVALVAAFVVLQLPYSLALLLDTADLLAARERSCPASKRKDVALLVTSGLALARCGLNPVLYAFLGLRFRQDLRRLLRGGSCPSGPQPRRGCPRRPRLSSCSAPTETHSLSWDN
Procedure: (§1) Each tracer candidate was screened across the entire library of HiBiT-GPCR constructs using NanoBRET as the detection modality. As depicted in Figure 4A, the specificity of interactions was evaluated through decrease in BRET due to competitive displacement of a bound tracer by excess parental compound. Each tracer was analyzed for binding to each HiBiT-GPCR fusion in the absence and in the presence of competing parental compound. Briefly, HEK293 cells were transfected with HiBiT-GPCR constructs diluted into promoterless DNA to reduce expression and maximize translocation to the cell surface. Each tracer candidate was then screened at concentrations of 1 μM and 0.1 μM across cells expressing these fusions. Cells were treated for 1.5 h with tracer either alone or in the presence of 20 μM competing parental compound (i.e., control). BRET was measured upon addition of purified LgBiT and subsequent complementation with HiBiT genetically fused to a GPCR. The specificity of interactions was assessed through a decrease in BRET signal due to competitive displacement of the bound tracer. To further gauge the robustness of these interactions, the fold response over the control (i.e., BRETtracer/BRETcontrol) was calculated. We chose a 1.5-fold response, which translates to ≥7-fold signal over noise as the minimal threshold required to score an interaction as positive.
(§2) HiBiT-GPCR DNA constructs were diluted in 10 mM Tris pH 8 to a final concentration of 0.01 μg/μL, arrayed in 96-well plates and stored at −20 °C. For transfection, HEK293 cells were suspended in Opti-MEM (without phenol red) supplemented with 2% fetal bovine serum (Seradigm) and 100 units/mL penicillin–streptomycin (Gibco) at a final concentration of 220,000 cells/mL and dispensed into white 96-well plates at 90 μL/well. Subsequent transfections and screens were carried using an Agilent Bravo Automated Liquid Handling Platform. First, the 96-well HiBiT DNA arrays were diluted 25-fold in Opti-MEM (without serum or phenol red) to a final concentration of 0.0004 μg/μL and 20 μL of the diluted DNAs were transferred into new 96-well plates. Next, promoterless carrier DNA (1 μg/μL) was diluted 25-fold (0.04 μg/μL) and then dispensed into the diluted arrays at 20 μL/well. Following brief mixing, Viafect transfection reagent (Promega) diluted 16-fold into Opti-MEM was dispensed into the plates at 40 μL/well. After mixing by pipetting, plates were incubated for 10 min on the pipetting station deck. The DNA-transfection reagent complexes were then added to plates containing cells. To facilitate the screen, 10 μL of DNA-transfection reagent complexes were added in duplicates to the top 4 and bottom 4 rows, resulting in two identical 48-well arrays per plate. Plates with transfected cells were incubated for 18–20 h at 37 °C/5% CO2. A screen of each tracer across the entire library using two different concentrations requires duplicate plates of transfected cells. Depending on the number of tracers being screened, transfections can be scaled up using the same ratios. The next day, for each tracer, four 20× screening solutions in tracer dilution buffer (Promega) were prepared: two duplicates at final concentration of 20 μM and two duplicates at a final concentration of 2 μM. […] The four resulting solutions were diluted 4-fold in Opti-MEM without serum or phenol red to generate 5× solutions (5 µM and 0.5 µM tracer +/− 100 μM competing compound). To screen the library, a BioTek MultiFlo FX liquid dispenser was used to dispense 22.5 µL of tracer solution to the top 4 rows and 22.5 µL tracer + competing compound solution to the 4 bottom rows. Plates were briefly mixed on an orbital shaker and incubated for 1.5 h at room temperature. […] Plates were briefly mixed on an orbital shaker and incubated for 15 min to allow complementation.

CHRM5 = biological target: T2, CHRM5 (Homo sapiens, UniProt P08912); assay: NanoBRET screen HiBiT-CHRM5 in HEK293; assay type: binding
T2 construct: purchased Promega (in-house HiBiT-GPCR construct library, NanoBRET)
T2 sequence (P08912 1-532): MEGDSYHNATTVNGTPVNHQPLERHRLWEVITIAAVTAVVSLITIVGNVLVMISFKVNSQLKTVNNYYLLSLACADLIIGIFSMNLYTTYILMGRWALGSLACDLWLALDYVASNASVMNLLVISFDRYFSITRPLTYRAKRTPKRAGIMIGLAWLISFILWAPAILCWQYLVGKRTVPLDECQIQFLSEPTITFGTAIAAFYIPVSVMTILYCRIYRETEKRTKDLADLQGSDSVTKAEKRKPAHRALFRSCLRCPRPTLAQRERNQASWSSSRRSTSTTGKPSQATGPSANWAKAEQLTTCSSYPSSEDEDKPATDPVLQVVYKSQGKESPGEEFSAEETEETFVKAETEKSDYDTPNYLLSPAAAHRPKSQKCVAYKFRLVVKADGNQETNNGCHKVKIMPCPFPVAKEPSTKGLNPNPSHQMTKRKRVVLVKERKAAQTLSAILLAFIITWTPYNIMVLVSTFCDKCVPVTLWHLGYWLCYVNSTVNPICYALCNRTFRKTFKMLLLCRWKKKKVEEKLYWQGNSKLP
Procedure: as §1, §2

[1] = tracer at 0.1μM, listed as amitriptyline-b-2-NB590
[2] = tracer at 1μM, listed as amitriptyline-b-2-NB590

Row | SMILES | NanoBRET Fold Response (CCR10; CCR10, tracer 0.1μM) | NanoBRET Fold Response (CCR10; CCR10, tracer 1μM) | NanoBRET Fold Response (CHRM5; CHRM5, tracer 0.1μM) | NanoBRET Fold Response (CHRM5; CHRM5, tracer 1μM) | other results
1 | COc1ccccc1N1CCN(CCCCN2C(=O)c3ccc(CNC(=O)CCOCCOCCOCCOCCNC(=O)CCc4ccc5n4[B-](F)(F)[N+]4=C(c6ccc[nH]6)C=CC4=C5)cc3C2=O)CC1 [NAN-190-2-NB590] | 0.97 | 1.00 | 0.90 |  | 
2 | CC(C)N(CC[C@H](c1ccccc1)c1cc(CCNC(=O)CCOCCOCCOCCOCCNC(=O)CCc2ccc3n2[B-](F)(F)[N+]2=C(c4ccc[nH]4)C=CC2=C3)ccc1O)C(C)C [Tolterodine-2-NB590] | 1.17 | 0.97 | 3.27 | 2.82 | 
3 | N#CN=C(NCCCOc1cccc(CN2CCCCC2)c1)NCCNC(=O)CCOCCOCCOCCOCCNC(=O)CCc1ccc2n1[B-](F)(F)[N+]1=C(c3ccc[nH]3)C=CC1=C2 [Aminopotentidine-2-NB590] | 1.00 | 1.01 | 1.02 | 1.10 | 
4 | CCOC(=O)c1cc(C#N)c(N2CCC(C(=O)NS(=O)(=O)Cc3ccccc3/C=C/C(=O)NCCNC(=O)CCc3ccc4n3[B-](F)(F)[N+]3=C(c5ccc[nH]5)C=CC3=C4)CC2)nc1C [AZD1283-1-NB590] |  |  |  |  | NanoBRET Fold Response (CCR10; CCR10, 0.1μM): 1.00; NanoBRET Fold Response (CCR10; CCR10, 1μM): 1.07; NanoBRET Fold Response (CHRM5; CHRM5, 0.1μM): 1.08; NanoBRET Fold Response (CHRM5; CHRM5, 1μM): 1.08
5 | CN(C)CCC=C1c2ccccc2CCc2ccc(C(=O)NCCNC(=O)CCOCCOCCOCCOCCNC(=O)CCc3ccc4n3[B-](F)(F)[N+]3=C(c5ccc[nH]5)C=CC3=C4)cc21 [Amitriptyline-b-2-NB590] |  |  |  |  | NanoBRET Fold Response (CCR10; [1]): 1.05; NanoBRET Fold Response (CCR10; [2]): 1.19; NanoBRET Fold Response (CHRM5; [1]): 3.47; NanoBRET Fold Response (CHRM5; [2]): 4.23
6 | CN(C)CCC=C1c2ccccc2CCc2ccc(C(=O)NCCNC(=O)CCOCCOCCOCCOCCNC(=O)CCc3ccc4n3[B-](F)(F)[N+]3=C(c5ccc[nH]5)C=CC3=C4)cc21 [Amitriptyline-a-2-NB590] |  |  |  |  | NanoBRET Fold Response (CCR10; tracer at 0.1μM): 1.02; NanoBRET Fold Response (CCR10; tracer at 1μM): 1.00; NanoBRET Fold Response (CHRM5; tracer at 1μM): 1.23
7 | O=C(CCc1ccc2n1[B-](F)(F)[N+]1=C(c3ccc[nH]3)C=CC1=C2)NCCOCCOCCNC(=O)OCCOCCN1CCN(C2=Nc3ccccc3Sc3ccccc32)CC1 [Quetiapine-a-2-NB590] | 1.01 | 0.94 | 1.18 | 1.36 | 
8 | Cc1cc2c(s1)Nc1ccccc1N=C2N1CCN(CCCNC(=O)CCOCCOCCOCCOCCNC(=O)CCc2ccc3n2[B-](F)(F)[N+]2=C(c4ccc[nH]4)C=CC2=C3)CC1 [Olanzapine-a-2-NB590] | 1.01 | 0.95 | 1.05 | 1.00 | 
9 | CN1CCN(C2=Nc3cc(Cl)ccc3Nc3ccc(CNC(=O)CCOCCOCCOCCOCCNC(=O)CCc4ccc5n4[B-](F)(F)[N+]4=C(c6ccc[nH]6)C=CC4=C5)cc32)CC1 [Clozapine-b-2-NB590] |  |  |  |  | NanoBRET Fold Response (CCR10; CCR10, 0.1μM tracer): 1.01; NanoBRET Fold Response (CCR10; CCR10, 1μM tracer): 1.15; NanoBRET Fold Response (CHRM5; CHRM5, 0.1μM tracer): 1.00
